Like-named read-outs stand apart in the source and are kept apart here.
Key:
[1] = system: leukemia (K562) cell line; assay: MTT cancer cell proliferation, K562; assay type: cell-based; details: Homo sapiens, read-out: IC50 proliferation K-562
[2] = system: human breast cancer (MCF-7); assay: MTT cancer cell proliferation, MCF-7; assay type: cell-based; details: read-out: IC50 proliferation MCF-7
[3] = Pharmacokinetics in SD rats; assay type: in vivo; details: for half-life: read-out: t ½ (converted)
[4] = system: ovarian cancer (SK-OV-3) cell line; assay: MTT cancer cell proliferation, SK-OV-3; assay type: cell-based; details: Homo sapiens, read-out: IC50 proliferation SK-OV-3
[5] = system: gastric cancer (MGC-803) cell line; assay: MTT cancer cell proliferation, MGC-803; assay type: cell-based; details: Homo sapiens, read-out: IC50 proliferation MGC-803
[6] = system: triple negative breast cancer (MDA-MB-231) cell line; assay: MTT cancer cell proliferation, MDA-MB-231; assay type: cell-based; details: Homo sapiens
[7] = system: non-small cell lung cancer (NCI-H1299) cell line; assay: MTT cancer cell proliferation, NCI-H1299; assay type: cell-based; details: Homo sapiens, read-out: IC50 proliferation NCI-H1299
[8] = system: xenografts of human prostate cancer PC3; assay: Human prostate cancer PC-3 xenografts in nude mice; assay type: in vivo, BALB/c nude mice; details: for relative tumor proliferation rate T/C(%) / tumor growth inhibition rate: PC-3 xenograft, 28 days
[9] = system: prostate cancer (PC-3) cell line; assay: MTT cancer cell proliferation, PC-3; assay type: cell-based; details: Homo sapiens, read-out: IC50 proliferation PC-3
[10] = system: pancreatic cancer (Panc-1) cell line; assay: MTT cancer cell proliferation, Panc-1; assay type: cell-based; details: Homo sapiens, read-out: IC50 proliferation Panc-1
[11] = system: xenografts of human prostate cancer Du-145; assay: Human prostate cancer Du-145 xenografts in nude mice; assay type: in vivo, BALB/c nude mice; details: for inhibition on tumor growth, in words: FIG. 3
[12] = system: lung cancer (A-549); assay: MTT cancer cell proliferation, A-549; assay type: cell-based; details: Homo sapiens, read-out: IC50 proliferation A-549
[13] = system: ICR mice; assay: Acute toxicity in mice, single gavage; assay type: in vivo
[14] = system: xenografts of human lung cancer A549; assay: Human lung cancer A549 xenografts in nude mice; assay type: in vivo, BALB/c nude mice; details: for relative tumor proliferation rate T/C(%) / tumor growth inhibition rate: A549 xenograft, 21 days
[15] = system: human glioma (U251) cell line; assay: MTT cancer cell proliferation, U251; assay type: cell-based; details: read-out: IC50 proliferation U251
[16] = target: CDK6 kinase (Homo sapiens (Human), UniProt Q00534); assay: CDK6 kinase activity, Lance Ultra TR-FRET; assay type: biochemical
[17] = system: liver cancer (HepG2) cell line; assay: MTT cancer cell proliferation, HepG2; assay type: cell-based; details: Homo sapiens, read-out: IC50 proliferation HepG2
[18] = system: colon cancer (HT-29) cell line; assay: MTT cancer cell proliferation, HT-29; assay type: cell-based; details: Homo sapiens, read-out: IC50 proliferation HT-29
[19] = target: DYRK2 kinase (Homo sapiens (Human), UniProt Q92630); assay: DYRK2 kinase activity, 33P-ATP / Woodtide substrate; assay type: biochemical
[20] = system: multiple myeloma (RPMI8226) cell line; assay: MTT cancer cell proliferation, RPMI8226; assay type: cell-based; details: Homo sapiens, read-out: IC50 proliferation RPMI8226
[21] = system: prostate cancer (Du-145) cell line; assay: MTT cancer cell proliferation, Du-145; assay type: cell-based; details: Homo sapiens, read-out: IC50 proliferation Du-145
[22] = rat, plasma, iv tail vein 1 mg/kg
[23] = rat, plasma, po gavage 10 mg/kg
[24] = 100 mg/kg intragastric once every day
[25] = 200 mg/kg intragastric once every day
[26] = Du-145 xenograft, 200 mg/kg intragastric once every day
[27] = 150 mg/kg intragastric once every 2 days
[28] = 300 mg/kg intragastric once every 2 days

Sequence of DYRK2 kinase (Q92630 whole entry): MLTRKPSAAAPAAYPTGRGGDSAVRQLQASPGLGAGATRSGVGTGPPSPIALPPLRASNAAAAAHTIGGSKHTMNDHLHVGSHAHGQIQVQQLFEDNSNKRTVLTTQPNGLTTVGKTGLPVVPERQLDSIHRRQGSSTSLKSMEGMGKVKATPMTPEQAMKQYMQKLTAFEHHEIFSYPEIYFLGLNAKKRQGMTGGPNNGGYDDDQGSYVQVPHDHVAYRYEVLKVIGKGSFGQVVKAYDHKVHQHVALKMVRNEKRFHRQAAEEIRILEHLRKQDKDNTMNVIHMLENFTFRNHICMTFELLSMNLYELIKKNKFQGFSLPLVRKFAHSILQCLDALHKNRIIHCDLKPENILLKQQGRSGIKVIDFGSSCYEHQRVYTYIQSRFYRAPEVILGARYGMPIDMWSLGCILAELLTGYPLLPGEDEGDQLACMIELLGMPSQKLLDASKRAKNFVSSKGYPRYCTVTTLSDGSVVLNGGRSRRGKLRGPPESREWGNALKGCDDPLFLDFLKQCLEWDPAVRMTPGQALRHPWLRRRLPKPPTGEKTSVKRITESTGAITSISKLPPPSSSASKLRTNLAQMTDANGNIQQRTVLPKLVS
Sequence of CDK6 kinase (Q00534 whole entry): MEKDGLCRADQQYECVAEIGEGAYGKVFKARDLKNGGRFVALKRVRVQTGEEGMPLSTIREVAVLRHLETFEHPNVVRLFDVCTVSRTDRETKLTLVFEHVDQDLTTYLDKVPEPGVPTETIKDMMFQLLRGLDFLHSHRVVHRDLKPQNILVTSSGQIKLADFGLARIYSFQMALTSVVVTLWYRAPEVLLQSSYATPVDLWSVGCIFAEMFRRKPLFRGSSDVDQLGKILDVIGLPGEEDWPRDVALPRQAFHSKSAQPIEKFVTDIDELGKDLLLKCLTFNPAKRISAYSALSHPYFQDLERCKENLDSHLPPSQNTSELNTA
Sequence of CDK6 kinase (P24385 whole entry partner): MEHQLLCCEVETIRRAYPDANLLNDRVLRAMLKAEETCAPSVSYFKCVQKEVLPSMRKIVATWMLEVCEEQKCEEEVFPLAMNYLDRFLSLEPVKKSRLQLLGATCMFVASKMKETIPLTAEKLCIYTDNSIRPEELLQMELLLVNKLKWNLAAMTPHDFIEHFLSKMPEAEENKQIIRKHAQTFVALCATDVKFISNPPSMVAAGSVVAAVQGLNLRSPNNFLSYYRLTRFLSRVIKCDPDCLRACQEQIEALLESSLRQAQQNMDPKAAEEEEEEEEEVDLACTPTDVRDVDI

## CCN1CCN(C(=O)c2ccc(Nc3ncc(F)c(-c4ccc5nc(N(C)C)sc5c4)n3)nc2)CC1 [Example 31, (6-((4-(2-(dimethylamino)benzothiazole-6-yl)-5-fluoropyrimidine-2-yl)amino)pyridine-3-yl)(4-ethylpiperazine-1-yl)ketone]
[1]; K562, 72 h
  IC50: 0.917 µM
[2]; MCF7, 72 h
  IC50: 1.89 µM
[3]
  Pharmacokinetic assessment in words: good metabolism in rats, good absorption and exposure and high bioavailability
[3]; po 10 mg/kg vs iv 1 mg/kg
  F (bioavailability): 55.78%
[3]; po gavage 10 mg/kg
  Cl: 19.97 mL/min/kg
[3]; [22]
  AUC(0-inf): 1500 ng·h/mL
  Cmax: 974 ng/mL
  Tmax: 0.033 h
  clearance: 11.1 mL/min/kg
  half-life: 2.99 h
[3]; [23]
  AUC(0-inf): 8380 ng·h/mL
  Cmax: 674 ng/mL
  Tmax: 4 h
  half-life: 5.08 h
[4]; SK-OV-3, 72 h
  IC50: 1.78 µM
[5]; MGC-803, 72 h
  IC50: 2.02 µM
[6]; MDA-MB-231, 72 h, read-out: IC50 proliferation MDA-MB-231
  IC50: 1.75 µM
[7]; NCI-H1299, 72 h
  IC50: 2.13 µM
[8]; PC-3 xenograft in nude mice
  effect on growth of xenografts, in words: significant inhibitory effect
[8]; [24]
  relative tumor proliferation rate T/C(%): 35.7%
  tumor growth inhibition rate: 64.3%
[8]; [25]
  relative tumor proliferation rate T/C(%): 23.4%
  tumor growth inhibition rate: 76.6%
[9]; PC-3, 72 h
  IC50: 1.06 µM
[10]; PANC-1, 72 h
  IC50: 1.93 µM
[11]; Du-145 xenograft in nude mice
  effect on growth of xenografts, in words: significant inhibitory effect
[11]; Du-145 xenograft, 100 mg/kg intragastric once every day, groups compared
  inhibition on tumor growth, in words: better inhibition on tumor growth than the positive drug Palbociclib
[11]; [26]
  day on which tumor volume started to be reduced: 31 days
  inhibition on tumor growth, in words: significantly inhibited tumor growth
[12]; A549, 72 h
  IC50: 1.64 µM
[13]; acute toxicity assay, FIG. 2
  Organ toxicity by HE staining: no significant toxicity to heart, liver, spleen, lung, kidney and other major organs
[13]; single gavage 2500, 5000 or 10000 mg/kg
  Toxicity symptoms / abnormality: no abnormality was found within 12 h after administration in all groups
[13]; single gavage 2500, 5000 or 10000 mg/kg, 14 days observation
  Death of mice: No animals died within 24h of dosing and no animals died after day 14 of dosing
[14]; A549 xenograft in nude mice
  effect on growth of xenografts, in words: significant inhibitory effect
[14]; [27]
  relative tumor proliferation rate T/C(%): 44.8%
  tumor growth inhibition rate: 55.2%
[14]; [28]
  relative tumor proliferation rate T/C(%): 35.9%
  tumor growth inhibition rate: 64.1%
[15]; U-251, 72 h
  IC50: 2.15 µM
[16]
  IC50: 0.018 µM
[17]; HepG2, 72 h
  IC50: 1.54 µM
[18]; HT-29, 72 h
  IC50: 1.87 µM
[19]
  IC50: 0.009 µM
[20]; RPMI-8226, 72 h
  IC50: 1.08 µM
[21]; DU-145, 72 h
  IC50: 3.3 µM

## CC(=O)c1c(C)c2cnc(Nc3ccc(N4CCNCC4)cn3)nc2n(C2CCCC2)c1=O [Palbociclib, reference compound]
[1]; K562, MTT, 72 hours
  IC50: 2.02 µM
[2]; MCF7, MTT, 72 hours
  IC50: 4.49 µM
[4]; SK-OV-3, MTT, 72 hours
  IC50: 4.01 µM
[5]; MGC-803, MTT, 72 hours
  IC50: 4.45 µM
[6]; MDA-MB-231, read-out: IC50 proliferation MDA-MB-231, MTT, 72 hours
  IC50: 4.37 µM
[7]; NCI-H1299, MTT, 72 hours
  IC50: 4.2 µM
[8]; [24]
  relative tumor proliferation rate T/C(%): 35.5%
  tumor growth inhibition rate: 64.5%
[9]; PC-3, MTT, 72 hours
  IC50: 4.57 µM
[10]; PANC-1, MTT, 72 hours
  IC50: 4.16 µM
[12]; A549, MTT, 72 hours
  IC50: 4.23 µM
[14]; [27]
  relative tumor proliferation rate T/C(%): 39.6%
  tumor growth inhibition rate: 60.4%
[15]; U-251, MTT, 72 hours
  IC50: 4.35 µM
[17]; HepG2, MTT, 72 hours
  IC50: 4.14 µM
[18]; HT-29, MTT, 72 hours
  IC50: 3.84 µM
[20]; RPMI-8226, MTT, 72 hours
  IC50: 2.31 µM
[21]; DU-145, MTT, 72 hours
  IC50: 4.57 µM
